Read-outs that look alike come from different tables or passages of the source.
Experiments:
[1] = mice treated with MPTP; cited from earlier work
[2] = cited from earlier work
[3] = mice; preclinical model of anxiety; cited from earlier work
[4] = mice; preclinical model of anxiety; cited from earlier work; remark: listed apart in the source
[5] = target: recombinant human mGlu4 expressed in HEK293 cells (Homo sapiens (Human), UniProt Q14833); experiment: Ca2+ mobilization in vitro assay, mGlu4 PAM; assay type: cell-based; conditions: for EC50: HEK293 cells, human mGlu4, with EC20 of L-AP4; for Eff. (%): maximal response in % of maximal stimulatory effect of saturating L-AP4
Experimental: Determination of EC50 values using a Ca2+ mobilization in vitro assay on recombinant human mGlu4 expressed in HEK293 cells:
A monoclonal HEK-293 cell line stably transfected with a cDNA encoding for the human mGlu4 receptor was generated; for the work with mGlu4 Positive Allosteric Modulators (PAMs), a cell line with low receptor expression levels and low constitutive receptor activity was selected to allow the differentiation of agonistic versus PAM activity. Cells were cultured according to standard protocols (Freshney, 2000) in Dulbecco's Modified Eagle Medium with high glucose supplemented with 1 mM glutamine, 10% (vol/vol) heat-inactivated bovine calf serum, Penicillin/Streptomycin, 50 μg/ml hygromycin and 15 μg/ml blasticidin (all cell culture reagents and antibiotics from Invitrogen, Basel, Switzerland). About 24 hrs before an experiment, 5×10^4 cells/well were seeded in poly-D-lysine coated, black/clear-bottomed 96-well plates. The cells were loaded with 2.5 μM Fluo-4AM in loading buffer (1×HBSS, 20 mM HEPES) for 1 hr at 37° C. and washed five times with loading buffer. The cells were transferred into a Functional Drug Screening System 7000 (Hamamatsu, Paris, France), and 11 half logarithmic serial dilutions of test compound at 37° C. were added and the cells were incubated for 10-30 min. with on-line recording of fluorescence. […] Graphs were plotted with the % maximal stimulatory using XLfit, a curve fitting program that iteratively plots the data using Levenburg Marquardt algorithm. The single site competition analysis equation used was y=A+((B-A)/(1+((x/C)D))), where y is the % maximal stimulatory effect, A is the minimum y, B is the maximum y, C is the EC50, x is the log 10 of the concentration of the competing compound and D is the slope of the curve (the Hill Coefficient).
FIG. 1: Illustration of the experimental outline for mGlu4 PAM Ca2+ mobilization screening assay and the determination of EC50 and % Emax values.

Chain of recombinant human mGlu4 expressed in HEK293 cells (Q14833 33-912): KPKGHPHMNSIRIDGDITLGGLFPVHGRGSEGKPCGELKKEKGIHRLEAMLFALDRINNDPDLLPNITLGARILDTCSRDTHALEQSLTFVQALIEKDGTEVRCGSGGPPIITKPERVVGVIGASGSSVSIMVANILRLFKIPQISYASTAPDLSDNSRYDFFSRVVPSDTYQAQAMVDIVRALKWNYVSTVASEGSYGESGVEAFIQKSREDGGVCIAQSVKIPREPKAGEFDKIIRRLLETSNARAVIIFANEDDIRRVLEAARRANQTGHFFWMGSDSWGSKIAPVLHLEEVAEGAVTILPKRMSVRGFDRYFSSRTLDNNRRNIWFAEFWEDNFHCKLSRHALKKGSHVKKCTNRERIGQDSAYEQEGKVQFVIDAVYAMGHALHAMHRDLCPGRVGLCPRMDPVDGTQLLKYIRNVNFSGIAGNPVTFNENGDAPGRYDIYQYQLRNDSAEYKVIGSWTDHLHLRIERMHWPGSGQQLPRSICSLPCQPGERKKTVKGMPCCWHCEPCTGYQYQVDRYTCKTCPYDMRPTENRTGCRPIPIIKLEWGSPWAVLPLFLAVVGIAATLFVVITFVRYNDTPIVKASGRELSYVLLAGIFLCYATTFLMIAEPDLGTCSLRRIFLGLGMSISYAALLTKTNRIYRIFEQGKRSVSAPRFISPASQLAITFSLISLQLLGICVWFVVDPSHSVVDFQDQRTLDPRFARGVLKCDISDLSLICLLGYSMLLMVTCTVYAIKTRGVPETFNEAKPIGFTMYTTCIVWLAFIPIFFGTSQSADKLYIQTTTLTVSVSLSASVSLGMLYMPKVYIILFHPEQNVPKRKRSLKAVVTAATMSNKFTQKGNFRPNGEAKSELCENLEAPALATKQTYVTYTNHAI

SMILES: O=C(Nc1ccccc1)C12CC1/C(=N\O)c1ccccc1O2 (single isomer, unassigned; (-)) [(−)-PHCCC]
- nigrostriatal degeneration [1]: reduced nigrostriatal degeneration

SMILES: Cc1ccnc(Nc2nc(-c3cn[nH]c3)c(C)s2)n1 [ADX88178]
- profile in rat EPM test ([2]; rat, after oral dosing): anxiolytic-like profile
- activity in EPM ([2]; rats, preclinical model of anxiety): active
- activity in EPM [3]: active
- activity in marble burying test [4]: active

SMILES: CCn1cc2c(n1)CCC[C@]21CC(=O)N(c2c(F)cc(C#Cc3ccccc3)cc2F)C(=O)N1C [Example 1, (4S)-3′-[2,6-Difluoro-4-(2-phenylethynyl)phenyl]-2-ethyl-1′-methyl-spiro[6,7-dihydro-5H-indazole-4,6′-hexahydropyrimidine]-2′,4′-dione]
- EC50 [5]: 77 nM
- Eff. (%) [5]: 132%

SMILES: CCn1ncc2c1CCC[C@]21CC(=O)N(c2c(F)cc(C#Cc3ccccc3)cc2F)C(=O)N1C [Example 2, (4S)-3′-[2,6-Difluoro-4-(2-phenylethynyl)phenyl]-1-ethyl-1′-methyl-spiro[6,7-dihydro-5H-indazole-4,6′-hexahydropyrimidine]-2′,4′-dione]
- EC50 [5]: 85 nM
- Eff. (%) [5]: 136%

Source: patent publication US11242349B2, “Ethynyl derivatives” (Hoffmann-La Roche Inc., priority 2016, dated 2022)
